Experimental data published in article PMC12040169 (PLOS Biology, 2025).

Experiment: in vitro
Settings: human, hela cells, % viability

SMILES | viability at 28.5 h, 10 µM [%]
COc1ccc(C(=O)Nc2ccc(N3CCOCC3)c(Cl)c2)cc1[N+](=O)[O-] [CBK263894] | 100
Cc1ccccc1C(=O)Nc1cccc(NC(=S)NC(=O)c2cccs2)c1 [CBK263895] | 93.1
O=C(CSc1nc(-c2ccccc2)cc(-c2ccccc2)n1)Nc1cccc([N+](=O)[O-])c1 [CBK263896] | 97.9
Cc1ccc2oc(-c3ccc(C)c(NC(=S)NC(=O)c4ccc([N+](=O)[O-])cc4)c3)nc2c1 [CBK263897] | 90.4
O=C(COc1ccccc1)Nc1nnc[nH]1 [CBK263898] | 108
Cn1c2ccc(Br)cc2c2nnc(SCC(=O)N3c4ccccc4Sc4ccccc43)nc21 [CBK263900] | 88.7
O=C(CC(NC(=O)c1ccccc1)c1ccccc1)Nc1cccc2ccccc12 (centres unmarked) [CBK263901] | 98.9
COc1ccc(-c2c(C(F)(F)F)oc3cc(OC(=O)c4cccc(C)c4)ccc3c2=O)cc1OC [CBK263907] | 99.3
Cc1cc(C)cc(Oc2coc3c(CN4CCOCC4)c(O)ccc3c2=O)c1 [CBK263908] | 89.7
O=C(Cc1ccc(Cl)cc1)NC(=S)Nc1ccccc1[N+](=O)[O-] [CBK263909] | 95.4
Cc1cc(C)nc(N/C(=N\C(=O)c2ccccc2)N2CCC(C(N)=O)CC2)n1 [CBK263910] | 99.4
CS(=O)(=O)N(CC(=O)N/N=C/c1ccncc1)c1ccccc1Br [CBK263911] | 100
Cc1c(NC(=O)COc2ccc([N+](=O)[O-])cc2)cccc1-c1nc2ncccc2o1 [CBK263912] | 105
COc1ccc(-c2nnc3[nH]c(=O)n(C)c(=O)c3n2)cc1OC [CBK263914] | 89
Cc1c(NC(=O)CSc2nnc3c4ccccc4n(C(C)C)c3n2)c(=O)n(-c2ccccc2)n1C [CBK263916] | 105
O=C(O)c1ccccc1Nc1c2ccccc2nc2ccccc12 [CBK263921] | 96
Cc1ccc2oc(-c3cc(NC(=S)NC(=O)c4ccc([N+](=O)[O-])cc4)ccc3O)nc2c1 [CBK263923] | 94.3
Cc1ccc(OCC(=O)NC(=S)Nc2cccc(-c3nc4ncccc4o3)c2C)cc1 [CBK263925] | 109
CCOC(=O)C(CO)NC(=O)c1cncc(Br)c1 (centres unmarked) [CBK263926] | 83.8
CC(Oc1ccc(/C=N/n2cnnc2)cc1)C(=O)O (centres unmarked) [CBK263927] | 82
Cc1ccc(OCC(=O)NC(=S)Nc2ccc(Cl)c(-c3nc4ncccc4o3)c2)cc1 [CBK263930] | 103
Cc1ccc(/C=C2\SC(=S)N(CC(=O)Nc3cccc(C(=O)O)c3)C2=O)cc1 [CBK263935] | 86.2
O=C(NCCNc1c(Cl)cccc1[N+](=O)[O-])c1cccc(Br)c1 [CBK263940] | 91.4
O=C(CSc1nc2ccccc2[nH]1)n1c2c(c3ccccc31)CCCC2 [CBK263945] | 92.8
Cc1c(/C=C2\SC(=S)NC2=O)c2ccccc2n1Cc1ccccc1Cl [CBK263946] | 101
COc1cc(/C=C2\C(=O)NN(c3ccccc3)C2=O)ccc1OCCOc1cc(C)ccc1C [CBK263947] | 80.5
CC(Oc1ccc(Cl)cc1Cl)C(=O)NC1CC(C)(C)NC(C)(C)C1 (centres unmarked) [CBK263951C] | 90.3

SMILES | viability at 28.5 h, 10 µM [%]
NCCNc1ccc(C(=O)Nc2cccc(Cl)c2)cc1[N+](=O)[O-] [CBK263953] | 85.3
N=C1NC(=O)/C(=C/c2cccc(OCCOc3ccc(C4CCCCC4)cc3)c2)S1 [CBK263956] | 87.6
O=C1CC(NCc2ccccc2)C(=O)N1c1ccc(N2C(=O)CC(NCc3ccccc3)C2=O)cc1 (centres unmarked) [CBK263963] | 88.6
COc1ccc(N(CC(=O)Nc2cccc3cccnc23)S(=O)(=O)c2ccc(C)cc2)cc1 [CBK263965] | 74
CC(C)Oc1ccc(CCNC(=N)NC(=N)N)cc1Cl [CBK263966] | 91.5
Cc1ccc(S(=O)(=O)N(CC(=O)Nc2cccnc2)c2ccc(F)cc2)cc1 [CBK263968] | 85.6
COc1ccc(Cl)cc1NC(=O)CCSc1ccccc1 [CBK263969] | 85
S=C(NCCC(c1ccccc1)c1ccccc1)Nc1ccc(Cl)c(Cl)c1 [CBK263972] | 85.1
O=S(=O)(NCc1ccccn1)c1ccc(Cl)c(Cl)c1Cl [CBK263978] | 95.6
O=C(Nc1ccc(-c2nc3ccccc3s2)c(O)c1)c1ccc(-c2ccccc2)cc1 [CBK263979] | 92.9
Cc1ccc(N(CC(=O)Nc2ccc(S(=O)(=O)N3CCCCC3)cc2)S(C)(=O)=O)c(C)c1 [CBK263981] | 99.8
O=C(COc1ccccc1[N+](=O)[O-])Nc1cc(C(=O)O)cc(C(=O)O)c1 [CBK263983] | 93.9
CCOC(=O)c1ccccc1NC(=O)CC1Nc2ccccc2NC1=O (centres unmarked) [CBK263990] | 91.3
Cc1ccc(S(=O)(=O)NCCSc2ccccc2)cc1[N+](=O)[O-] [CBK263991] | 93.6
O=C(Nc1ccc(S(=O)(=O)N2CCCCC2)cc1)c1ccc(CN2CCc3ccccc3C2)cc1 [CBK263993] | 90.7
Cc1ccc(S(=O)(=O)N(CC(=O)NC2CC3CCC2C3)c2cc(Cl)cc(Cl)c2)cc1 (centres unmarked) [CBK263995] | 85.3
OC(CN1CCOCC1)Cn1c(-c2ccccc2)c(-c2ccccc2)c2ccc3ccccc3c21 (centres unmarked) [CBK263996G] | 94.7
Cc1ccc(CNC(=O)CN(c2cccc(C(F)(F)F)c2)S(=O)(=O)c2ccc(C)cc2)cc1 [CBK263997] | 89.3
COc1ccccc1/C=C(/NC(=O)c1ccc(Cl)cc1Cl)C(=O)O [CBK263998] | 98.4
O=C(CN(c1ccccc1F)S(=O)(=O)c1ccccc1)Nc1ccccc1C(=O)O [CBK263999] | 97.1
COc1ccc(Cl)cc1NC(=O)C1CN(S(=O)(=O)c2ccccc2)CCN1S(=O)(=O)c1ccccc1 (centres unmarked) [CBK264000] | 93.3
O=S(=O)(NCCSc1ccccn1)c1ccc(Br)cc1 [CBK264001] | 99.3
COc1ccc(Br)cc1S(=O)(=O)n1ccnc1C [CBK264003] | 87.1
Cc1cc(C)c2oc(-c3cccc(NC(=O)c4cccc(Cl)c4Cl)c3C)nc2c1 [CBK264005] | 84.2
Cc1ccccc1CSCC(=O)Nc1ccc(S(=O)(=O)N2CCCCC2)cc1 [CBK264006] | 103
O=S(=O)(NCc1cccnc1)c1ccc(Cl)c2ccccc12 [CBK264008] | 89.5
Cc1ccccc1CNC(=O)c1ccc(C)c([N+](=O)[O-])c1 [CBK264010] | 110

Same assay, conditions: human, hela cells, % viability, bulk resorufin, single well

SMILES | viability at 28.5 h, 10 µM [%]
CN1C(=O)C(=Cc2ccc(-c3cccc([N+](=O)[O-])c3)o2)C(=O)N(C)C1=S [CBK263903] | 95.1
Cc1ccc(OCCn2cc(/C=C3/C(=O)NC(=O)N(Cc4ccco4)C3=O)c3ccccc32)cc1 [CBK263936] | 92.9
O=C1NC(=O)N(Cc2ccco2)C(=O)/C1=C\c1ccc(-c2ccc(Cl)c(C(=O)O)c2)o1 [CBK263937] | 97.9
O=C1NC(=O)N(Cc2ccco2)C(=O)/C1=C\c1cn(Cc2ccccc2)c2ccccc12 [CBK263939] | 88.5
Cc1cc(/C=C2\C(=O)NC(=S)N(c3ccccc3)C2=O)c(C)n1-c1cc(C(=O)O)cc(C(=O)O)c1 [CBK263975] | 105
